Measurements from patent publication US20110097409A1, “PARTICLES COMPRISING A SALT OF 8-HYDROXY-2-[[(1R)-2-(4-METHOXYPHENYL)-1-METHYLETHYL]AMINO]ETHYL]-2(1H)-QUINOLINONE HAVING IMPROVED ADHESION PROPERTIES FOR POWDER FORMULATIONS FOR INHALATION” (Chiesi Farmaceutici S.p.A., priority 2008, published 2011).
Counter-ions that a name gives are not always drawn.

Columns and labels:
[1] = Shape factor SF and particle shape from SEM images; format: physicochemical
Method: Accordingly, the powder particles of the invention are characterized by a “shape factor” SF comprised between 0.8 and 1.0, preferably from 0.85 and 0.95 as determined according to the following equation reported in Kumar S et al., Curr. Appl. Phys. Influence of metal powder shape on drag coefficient in a spray jet, 2008, in press doi:10.1016/j.cap.2008.06.005.
RN indicates the roundness of the particle and is calculated by applying the following formula: […]
wherein p and A are the mean perimeter and area values, respectively, of ten spherical particles as measured from Scanning electron microscopy (SEM) images.
The shape factor of the obtained particles, calculated according to the equation reported in the Detailed Description of the Preferred Embodiments, turned out to be comprised between 0.87 and 0.95.

[2] = Force and work of adhesion by atomic force microscopy (colloid probe); format: physicochemical; conditions: against smooth lactose carrier
Source text: The force of adhesion of the batches of powder particles obtained in Example 1 has been determined according to the procedure reported hereafter in comparison to those to those of micronised carmoterol hydrochloride and budesonide raw materials (r.m.) obtained by a conventional milling process.
As a substrate, alpha-lactose particles with a smooth surface having the characteristics reported in EP 1 196 146 and obtained as therein described are used.
An Atomic Force Microscope (AFM) as a scanning probe microscope is used to image lactose surface on an nm or even sub-nm level and to measure surface forces between the powder particles of the invention and particles of smoothed lactose.
A way to get information on the surface forces which are acting in a system and to illustrate the functioning of an AFM, is to use the “Force-Mode”. This is done by moving the tip towards and away from the surface. Recording photodetector signal as a function of z-piezo elongation yields a curve which can be interpreted as a force-vs.-distance-curve. In this work, this technique has been employed to measure the drug-carrier adhesion force modifying the original cantilever.
The interaction of the micron-sized carmoterol particles with lactose carrier surfaces is conducted using the Explorer AFM (Thermomicroscopes, UK). A multistage micromanipulation method for the attachment of micrometer-sized drug particles to tipless cantilevers was adapted from the method described by Preuss and Butt (Preuss M, Butt H-J. 1998, Langmuir, 14:3164-3174). Essentially, colloid probes are prepared by mounting an individual drug particle (approximate diameter 3-5 μm) onto a V-shaped tiples silicon nitride cantilever (spring constant k=0.58 N/m, Veeco Instruments Ltd., Cambridge, UK) using a quick-setting epoxy resin together with the custom-built microscope.
Force separation measurements are collected using layered imaging mode to produce multiple force distance curves (n=250) between each drug probe at three surface sites over a 10 μm×10 μm area. As the variability in probe contact radius geometry was unknown each study is performed at least in triplicate (n=3 to 4 probes for each measurement).
The displacement curves for each of the 250 contact points in the 10 μm×10 μm sector are plotted using a custom built MatLab program (The Mathworks Inc. USA).
The force of adhesion (the apex of the adhesion peak) and the work of adhesion (integrated area of the adhesion peak) is calculated for each graph. […] Outliers are defined as data points outside the 5-95% limits of the normal distributions obtained, and these are removed automatically by the batch conversion software. […]

## COc1ccc(C[C@@H](C)NC[C@H](O)c2ccc(O)c3[nH]c(=O)ccc23)cc1 [Carmoterol HCl r.m., 8-hydroxy-5-[(1R)-1-hydroxy-2-[[(1R)-2-(4-methoxyphenyl)-1-methylethyl]amino]ethyl]-2(1H)-quinolinone]
[1]; SF=1/RN, RN=p^2/4πA, from SEM images
  shape factor SF: 0.51
[1]; scanning electron microscope, FIG. 1
  particle shape by SEM inspection: different irregular flakes and/or sheets
[2]; particle population (20%)
  Force of adhesion Fmax: 11.03 ± 1.27 (20%) nN
  Work of adhesion Wad: 413.15 ± 131.85 µJ
[2]; particle population (80%)
  Force of adhesion Fmax: 42.68 ± 4.63 (80%) nN
  Work of adhesion Wad: 2115.69 ± 344.31 µJ
